Targets include BLK (Homo sapiens, UniProt P51451); TBK1 (Homo sapiens, UniProt Q9UHD2); NLK (Homo sapiens, UniProt Q9UBE8); BMPR2 (Homo sapiens, UniProt Q13873); PLK3 (Homo sapiens, UniProt Q9H4B4); SRPK3 (Homo sapiens, UniProt Q9UPE1); MAP4K5 (Homo sapiens, UniProt Q9Y4K4); EPHA6 (Homo sapiens, UniProt Q9UF33); EPHB2 (Homo sapiens, UniProt P29323); KIT(V559D,T670I) (Homo sapiens, UniProt P10721, T670I/V559D); AURKC (Homo sapiens, UniProt Q9UQB9); PRKX (Homo sapiens, UniProt P51817); LRRK2 (Homo sapiens, UniProt Q5S007); PRKD2 (Homo sapiens, UniProt Q9BZL6); PRKD1 (Homo sapiens, UniProt Q15139); TNK1 (Homo sapiens, UniProt Q13470).

Common to all, as to experiment: biochemical
Holding throughout (design): KINOMEscan active-site competition binding, percent of control (100 = no competition)
Common to all, as to settings: competition binding, percent control

For another test, the target named is T1, JNK1 (Homo sapiens, UniProt P45983).
T1 construct: gene MAPK8

The target of the next test is T2, CDC2L1 (Homo sapiens, UniProt P21127).
T2 construct: gene CDK11B

The target in a further test is T3, MKK7 (Homo sapiens, UniProt O14733).
T3 construct: gene MAP2K7

The target in the next test is T4, MEK2 (Homo sapiens, UniProt P36507).
T4 construct: gene MAP2K2

A further test concerns the target T5, PAK7 (Homo sapiens, UniProt Q9P286).
T5 construct: gene PAK5

The next test deals with T6, MEK6 (Homo sapiens, UniProt P52564).
T6 construct: gene MAP2K6

Test [1] has as its target T7, ABL1(M351T)-phosphorylated (Homo sapiens, UniProt P00519, M351T).
T7 construct: phosphorylated

Chain of TNK1 (Q13470 whole entry): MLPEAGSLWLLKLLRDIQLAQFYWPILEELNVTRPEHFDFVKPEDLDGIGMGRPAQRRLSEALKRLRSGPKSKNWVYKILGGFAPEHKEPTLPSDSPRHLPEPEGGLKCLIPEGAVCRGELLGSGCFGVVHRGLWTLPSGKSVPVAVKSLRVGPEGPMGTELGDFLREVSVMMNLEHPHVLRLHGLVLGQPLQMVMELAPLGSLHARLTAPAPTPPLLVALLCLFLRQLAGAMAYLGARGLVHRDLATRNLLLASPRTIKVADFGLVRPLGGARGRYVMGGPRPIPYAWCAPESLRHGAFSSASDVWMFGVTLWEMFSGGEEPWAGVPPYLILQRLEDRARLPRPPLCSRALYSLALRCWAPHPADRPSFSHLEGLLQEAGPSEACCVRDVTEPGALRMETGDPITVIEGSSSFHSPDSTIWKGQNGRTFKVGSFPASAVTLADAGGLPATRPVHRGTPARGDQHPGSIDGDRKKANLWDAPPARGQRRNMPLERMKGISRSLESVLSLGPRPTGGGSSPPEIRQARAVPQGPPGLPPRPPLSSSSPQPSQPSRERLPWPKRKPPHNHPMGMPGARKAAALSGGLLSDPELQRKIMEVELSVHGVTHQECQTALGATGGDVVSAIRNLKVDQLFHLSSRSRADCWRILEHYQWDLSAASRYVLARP
T5 sequence (Q9P286 whole entry): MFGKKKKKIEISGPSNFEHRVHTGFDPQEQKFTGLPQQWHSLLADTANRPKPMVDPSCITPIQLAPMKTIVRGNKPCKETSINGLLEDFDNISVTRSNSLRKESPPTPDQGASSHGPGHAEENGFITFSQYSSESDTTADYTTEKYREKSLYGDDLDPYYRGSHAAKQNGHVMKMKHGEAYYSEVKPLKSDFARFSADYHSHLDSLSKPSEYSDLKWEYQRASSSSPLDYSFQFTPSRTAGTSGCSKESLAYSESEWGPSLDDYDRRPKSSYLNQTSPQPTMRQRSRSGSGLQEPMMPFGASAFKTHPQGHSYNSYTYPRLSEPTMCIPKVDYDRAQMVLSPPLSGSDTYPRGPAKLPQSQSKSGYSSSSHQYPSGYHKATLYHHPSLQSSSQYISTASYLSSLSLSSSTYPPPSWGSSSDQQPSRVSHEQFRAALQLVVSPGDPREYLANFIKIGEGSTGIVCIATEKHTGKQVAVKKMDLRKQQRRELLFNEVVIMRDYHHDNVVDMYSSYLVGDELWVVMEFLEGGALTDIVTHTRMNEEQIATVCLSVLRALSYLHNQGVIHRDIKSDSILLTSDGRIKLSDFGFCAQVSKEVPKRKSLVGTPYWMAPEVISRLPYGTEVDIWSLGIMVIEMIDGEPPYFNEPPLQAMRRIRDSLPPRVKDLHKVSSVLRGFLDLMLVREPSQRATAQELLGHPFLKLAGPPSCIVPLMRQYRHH
Chain of PRKD1 (Q15139 whole entry): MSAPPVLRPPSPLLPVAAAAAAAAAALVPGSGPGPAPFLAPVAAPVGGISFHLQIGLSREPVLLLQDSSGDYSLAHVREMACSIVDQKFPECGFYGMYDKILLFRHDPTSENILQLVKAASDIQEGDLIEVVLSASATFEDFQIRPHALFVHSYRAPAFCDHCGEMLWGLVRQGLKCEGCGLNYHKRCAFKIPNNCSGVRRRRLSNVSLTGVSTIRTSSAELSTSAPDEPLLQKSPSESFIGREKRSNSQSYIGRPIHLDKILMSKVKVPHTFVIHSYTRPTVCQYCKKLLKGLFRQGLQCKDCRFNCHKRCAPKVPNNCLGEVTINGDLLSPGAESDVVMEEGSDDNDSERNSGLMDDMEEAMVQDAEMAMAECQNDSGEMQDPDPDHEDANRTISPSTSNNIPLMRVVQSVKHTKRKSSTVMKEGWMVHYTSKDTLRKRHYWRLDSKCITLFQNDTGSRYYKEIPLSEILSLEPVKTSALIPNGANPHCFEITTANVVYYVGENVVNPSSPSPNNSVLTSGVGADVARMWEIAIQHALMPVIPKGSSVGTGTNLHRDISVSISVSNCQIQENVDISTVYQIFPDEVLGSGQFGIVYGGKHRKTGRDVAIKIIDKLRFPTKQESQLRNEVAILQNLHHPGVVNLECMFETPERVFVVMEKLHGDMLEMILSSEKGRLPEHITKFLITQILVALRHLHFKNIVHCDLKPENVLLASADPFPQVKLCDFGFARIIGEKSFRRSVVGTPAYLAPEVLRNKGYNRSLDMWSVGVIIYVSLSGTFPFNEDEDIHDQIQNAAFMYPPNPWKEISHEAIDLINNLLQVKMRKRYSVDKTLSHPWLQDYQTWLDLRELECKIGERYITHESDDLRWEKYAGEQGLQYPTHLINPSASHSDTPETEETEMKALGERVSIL
Chain of LRRK2 (Q5S007 whole entry): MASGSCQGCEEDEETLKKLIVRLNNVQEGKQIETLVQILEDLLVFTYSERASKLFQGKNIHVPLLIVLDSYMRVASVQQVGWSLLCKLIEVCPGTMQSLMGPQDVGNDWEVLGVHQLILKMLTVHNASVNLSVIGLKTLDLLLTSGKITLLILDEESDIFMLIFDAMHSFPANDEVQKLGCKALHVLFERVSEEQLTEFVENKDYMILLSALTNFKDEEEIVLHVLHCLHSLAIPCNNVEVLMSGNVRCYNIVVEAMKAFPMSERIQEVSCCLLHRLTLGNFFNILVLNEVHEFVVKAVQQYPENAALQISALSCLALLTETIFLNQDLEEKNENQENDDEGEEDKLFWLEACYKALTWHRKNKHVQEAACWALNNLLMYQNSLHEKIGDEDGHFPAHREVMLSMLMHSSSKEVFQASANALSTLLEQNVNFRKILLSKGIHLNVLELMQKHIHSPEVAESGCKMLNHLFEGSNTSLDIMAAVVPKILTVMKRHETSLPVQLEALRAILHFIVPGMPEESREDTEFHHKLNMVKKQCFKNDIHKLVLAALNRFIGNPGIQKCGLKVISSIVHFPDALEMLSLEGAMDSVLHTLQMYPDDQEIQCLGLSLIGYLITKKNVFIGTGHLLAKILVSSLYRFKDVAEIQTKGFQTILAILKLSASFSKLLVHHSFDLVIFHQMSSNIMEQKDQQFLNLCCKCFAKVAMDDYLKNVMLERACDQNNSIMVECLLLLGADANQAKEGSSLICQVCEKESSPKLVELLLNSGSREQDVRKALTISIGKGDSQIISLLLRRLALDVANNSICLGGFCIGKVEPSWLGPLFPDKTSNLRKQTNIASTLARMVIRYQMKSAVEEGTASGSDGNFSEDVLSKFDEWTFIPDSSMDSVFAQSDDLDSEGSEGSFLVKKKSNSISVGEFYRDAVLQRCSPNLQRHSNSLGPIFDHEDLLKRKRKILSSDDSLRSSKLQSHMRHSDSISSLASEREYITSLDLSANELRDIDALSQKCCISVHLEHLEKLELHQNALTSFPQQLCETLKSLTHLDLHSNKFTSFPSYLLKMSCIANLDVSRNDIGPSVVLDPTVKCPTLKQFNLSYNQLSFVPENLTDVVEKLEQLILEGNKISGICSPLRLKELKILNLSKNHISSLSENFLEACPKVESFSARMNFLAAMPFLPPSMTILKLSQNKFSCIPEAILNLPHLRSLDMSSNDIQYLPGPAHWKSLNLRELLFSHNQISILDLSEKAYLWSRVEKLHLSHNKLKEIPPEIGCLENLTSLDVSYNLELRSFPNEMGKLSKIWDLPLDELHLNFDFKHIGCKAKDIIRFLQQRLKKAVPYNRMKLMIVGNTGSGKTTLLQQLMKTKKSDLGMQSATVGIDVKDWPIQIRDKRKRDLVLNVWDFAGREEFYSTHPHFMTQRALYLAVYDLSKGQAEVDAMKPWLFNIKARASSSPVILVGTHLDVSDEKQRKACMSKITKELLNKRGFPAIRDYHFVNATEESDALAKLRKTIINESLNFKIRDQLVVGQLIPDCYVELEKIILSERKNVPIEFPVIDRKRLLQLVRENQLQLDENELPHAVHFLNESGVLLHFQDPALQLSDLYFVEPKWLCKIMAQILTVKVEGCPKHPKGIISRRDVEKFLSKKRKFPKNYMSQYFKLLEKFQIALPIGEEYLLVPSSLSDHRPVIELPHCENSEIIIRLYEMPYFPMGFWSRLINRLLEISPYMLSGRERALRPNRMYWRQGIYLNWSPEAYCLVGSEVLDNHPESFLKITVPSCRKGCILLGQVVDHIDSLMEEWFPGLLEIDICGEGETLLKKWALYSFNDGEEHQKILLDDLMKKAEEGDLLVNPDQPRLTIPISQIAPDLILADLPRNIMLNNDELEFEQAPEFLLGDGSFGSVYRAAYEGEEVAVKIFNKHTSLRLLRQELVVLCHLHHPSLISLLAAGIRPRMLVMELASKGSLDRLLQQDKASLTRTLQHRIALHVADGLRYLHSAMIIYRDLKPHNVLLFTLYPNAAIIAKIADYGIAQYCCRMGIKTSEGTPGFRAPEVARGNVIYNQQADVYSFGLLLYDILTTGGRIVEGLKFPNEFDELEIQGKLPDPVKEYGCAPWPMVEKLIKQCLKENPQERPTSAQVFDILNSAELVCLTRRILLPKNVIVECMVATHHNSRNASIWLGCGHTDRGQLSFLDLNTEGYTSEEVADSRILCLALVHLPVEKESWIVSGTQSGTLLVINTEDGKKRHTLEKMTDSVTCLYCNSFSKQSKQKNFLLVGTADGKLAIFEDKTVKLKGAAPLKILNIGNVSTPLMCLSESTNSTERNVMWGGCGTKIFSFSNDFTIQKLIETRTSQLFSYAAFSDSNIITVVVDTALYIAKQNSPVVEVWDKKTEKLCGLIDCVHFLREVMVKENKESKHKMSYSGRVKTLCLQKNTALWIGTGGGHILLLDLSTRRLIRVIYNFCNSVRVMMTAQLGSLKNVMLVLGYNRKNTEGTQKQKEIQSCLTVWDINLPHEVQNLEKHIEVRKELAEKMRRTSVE

For the molecule `COc1ccc(-c2cnccc2-c2cnc(NC(=O)C(C)C)s2)c(C(F)(F)F)c1` [CRT0105446, N-{5-[3-(4-Methoxy-2-trifluoromethyl-phenyl)-pyridin-4-yl]-hiazol-2-yl}-isobutyramide], the remaining binding at 10 µM at JNK1 stood at 34%; at BLK it was 100%; at TBK1 it was 82%; on CDC2L1, 54%; on NLK it was 57%; on BMPR2 it was 100%. Moreover, the remaining binding at 10 µM came to 97% at MKK7; 97% at PLK3; 93% on SRPK3; 100% at MAP4K5; 86% on EPHA6; 100% on EPHB2. The remaining binding at 10 µM came out at 92% on MEK2; 95% on PAK7; 74% at KIT(V559D,T670I); 88% on AURKC; 100% on PRKX; 91% at LRRK2. The remaining binding at 10 µM at PRKD2 worked out at 74%; at PRKD1 it was 88%; at MEK6 it was 100%; in test [1], 83%; at TNK1 it was 67%.
In the case of `Cc1ccc(-c2cnccc2-c2cnc(Nc3ccc(O)cc3)s2)c(Cl)c1` [CRT0105950, 4-{5-[3-(2-Chloro-4-methyl-phenyl)-pyridin-4-yl]-thiazol-2-ylamino}-phenol], the remaining binding at 10 µM on JNK1 was 40%; at BLK it was 9.2%; on TBK1, 52%; on CDC2L1 it was 71%; on NLK it was 20%; on BMPR2, 8.9%. In addition, the remaining binding at 10 µM at MKK7 stood at 38%; on PLK3, 44%; at SRPK3, 62%; on MAP4K5, 32%; on EPHA6 it was 30%; on EPHB2, 81%. Moreover, the remaining binding at 10 µM at MEK2 stood at 42%; on PAK7 it was 93%; on KIT(V559D,T670I), 36%; on AURKC, 3.8%; on PRKX, 100%; at LRRK2, 54%. The remaining binding at 10 µM was found to be 26% on PRKD2; 18% on PRKD1; 20% on MEK6; 66% in test [1]; 3.7% at TNK1.

Values taken from PMC4770715, “LIM kinase inhibitors disrupt mitotic microtubule organization and impair tumor cell proliferation” (Oncotarget, 2015).
